Here are results for 98 compounds from PubChem BioAssay AID540268 (Broad Institute, 2011).

Molecules are shown by their SMILES. The source made the active and inactive calls. How the calls were made is not given here.

The nature of the first assay: growth inhibition of yeast carrying parasite Hsp90, dose response, anti-malarial Hsp90 inhibitor project, ATP luminescence, 48 h, cherry-picked samples (AID 540268).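 On activity change, negative = inhibition: 0% = neutral control wells and -100% = positive control wells.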 Particulars: yeast expressing the parasite Hsp90, ATP luminescence.
Broadly, the AC50 is the midpoint of the concentration-response curve, whichever way the signal moves. On to `O=C(/C=C/c1ccccc1Cl)c1ccc(O)cc1`, for which the AC50 was 4.63 µM.
For `Cc1ccc(N2C(=O)C3C4C=CC(CNC(=S)N5CCN(c6ccccn6)CC5)(O4)C3C2=O)cc1` (stereo not drawn), the AC50 was 8.31 µM.
Consider `O=C1C=CC(=O)C2C1C1(Cl)C(Cl)=C(Cl)C2(Cl)C1(Cl)Cl` (stereo not drawn), for which the AC50 was 8.65 µM.
On the same count and under the same terms, the figure for `O=c1c2ccccc2nc(-c2ccc(-c3ccccc3)cc2)n1-c1ccncc1` is 5.21 µM; for `COc1ccc(OC)c2c1C(=O)C(Cl)=C(Cl)C2=O` it is 1.64 µM; for `CCC(C)(C)n1nnnc1C(c1cccnc1)N1CCC(Cc2ccccc2)CC1` (stereo not drawn) it is 1.52 µM.
Take `Cc1ccc(C(C[N+](=O)[O-])Sc2ccc(N)cc2)cc1` (stereo not drawn): the AC50 was 6.83 µM.
As to `COc1cccc(/C=C/c2ccc3cccc(O)c3n2)c1`, the AC50 is less than 0.195 µM.
With `CC(=O)Oc1ccccc1C(=O)C=Cc1cccc([N+](=O)[O-])c1`, the AC50 was 1.66 µM.
Take `CCCCCCCCCCCCCCCCn1cc[n+](CC(C)=O)c1`: the half-maximal activity concentration (AC50) was 4.39 µM.
Same read-out and setting: next, `Clc1ccc(N=c2ssnc2Cl)nc1`: 3.19 µM; `O=C(c1ccc(-c2ccccc2)c(F)c1)C1CCCN(C(=O)c2cncs2)C1` (stereo not drawn): 8.42 µM.
In the case of `CCCCCCCCCCCCCC(=O)NO`, the AC50 is less than 0.195 µM.
Still for that read-out and setting: the figure for `CCc1ccc(S(=O)(=O)N(C(=O)c2ccncc2)c2ccc(OC(=O)c3ccncc3)cc2)cc1` is 1.28 µM.
As for `COc1ccc(-c2sc3ccccc3c2/C=C/c2ccncc2)cc1`, the AC50 was 4.84 µM.
For the compound `S=C1Cc2ccccc2N1`, the AC50 was 3.36 µM.
With `O=C(c1cccs1)c1no[n+]([O-])c1C(=O)c1cccs1`, the AC50 was 2.18 µM.
For `O=[N+]([O-])/C=C/c1cn(Cc2ccccc2)c2ccccc12`, the AC50 is 5.99 µM.
As to `COc1ccc(SN=C2C(C)=CC(=O)C=C2C)cc1`, the AC50 was 5.7 µM.
As to `O=C1C2(Cl)C3(Cl)C4(Cl)C(Cl)(Cl)C5(Cl)C3(Cl)C1(Cl)C5(Cl)C24Cl` (stereo not drawn), the AC50 was 2.93 µM.
As to `CC(C)(C)C1C/C(=C/c2ccccn2)C(=O)/C(=C/c2ccccn2)C1` (stereo not drawn), the AC50 is 8.29 µM.
Still for that read-out and setting: the figure for `CC(C)(C)c1ccc(-n2nc(C#N)c(Cl)cc2=O)cc1` is 4.31 µM; for `N/C(Cc1ccc(Cl)cc1Cl)=N\OC(=O)c1ccc(Br)o1` it is 4.14 µM; for `Clc1ccc(COC(Cn2ccnc2)c2ccc(Cl)cc2Cl)c(Cl)c1` (stereo not drawn) it is less than 0.195 µM.
Still for that read-out and setting: next, `COc1ccc(-c2nnc(SCC(=O)Oc3ccc(C)cc3)o2)cc1`: 2.02 µM; `CCN(CC)S(=O)(=O)c1cccc(NC(=O)c2ccc(Br)cc2)c1`: 5.81 µM; `O=C(Nc1nc(-c2ccccc2)c(-c2ccccc2)o1)c1ccc(F)cc1`: 8.21 µM.
Take `O=[N+]([O-])/C=C/c1cn(Cc2ccc(F)cc2)c2ccccc12`: the AC50 is 5.61 µM.
On to `CCCCCCCCCCCCCCCC[n+]1ccc(C(N)=O)cc1`, for which the AC50 was 7.6 µM.
Regarding `O=C1C=CC(=O)N1N(c1ccccc1)c1ccccc1`, the AC50 was 3.38 µM.
Consider `O=[N+]([O-])c1cccc(C=NNc2ccc3ccccc3n2)c1O`, for which the AC50 is 3.63 µM.
With `CCN(CC)c1ccc(C(=C2C=CC(=[N+](CC)CC)C=C2)c2ccccc2)cc1`, the AC50 was 1.09 µM.
Regarding `CC1CCN(C2CC(=O)N(c3ccc(Br)cc3Br)C2=O)CC1` (stereo not drawn), the AC50 was 0.774 µM.
With `CC(=O)OC1(C)CC(C)C(=O)C(C(O)CC2CC(=O)NC(=O)C2)C1` (stereo not drawn), the AC50 was less than 0.195 µM.
For `C(=NN=C1c2ccccc2-c2ccccc21)c1c[nH]c2ccccc12`, the AC50 was 2.72 µM.
On to `O=C(c1ccc(Cl)cc1)N1CCN(c2ccc(F)cc2)CC1`, for which the AC50 was 4.47 µM.
For the compound `CC(C)N1CCN(c2ccc(OCC3COC(Cn4cncn4)(c4ccc(Cl)cc4Cl)O3)cc2)CC1` (stereo not drawn), the AC50 is 1.12 µM.
Still for that read-out and setting: the figure for `COc1cccc(/C=N/Nc2ncnc3scc(-c4ccccc4)c23)c1O` is 15.3 µM; for `O=C1C2C3C=CC(CNS(=O)(=O)c4ccccc4[N+](=O)[O-])(O3)C2C(=O)N1c1ccccc1` (stereo not drawn) it is 10.3 µM.
On to `COc1ccc2c(c1)OC[C@H]1[C@H]2N2C(=O)c3cc(OC)ccc3NC(=O)[C@@]2(C)[C@H]1c1ccccc1`, for which the AC50 was 24.7 µM.
`Cn1c(SCC(=O)N/N=C/c2ccc([N+](=O)[O-])s2)nnc1-c1ccc(Cl)cc1`: the AC50 is 2.3 µM.
In the case of `CCCOC(=O)c1ccc(Oc2cn[nH]c2-c2ccc(OCC)cc2O)cc1`, the AC50 is less than 0.195 µM.
On the same count and under the same terms, the figure for `CCCCCCC(=O)N(O)C1CC(=O)N(c2ccc(C)cc2)C1=O` (stereo not drawn) is 0.829 µM.
`Cc1cccc(N2C(=O)C=CC2=O)c1`: the AC50 is 0.372 µM.
Take `COc1ccc(OC)c(NC(=O)c2nc(S(=O)(=O)Cc3ccccc3)ncc2Cl)c1`: the AC50 is 4.3 µM.
The same measure, in the same setting: next, `Cc1ccc(N=c2ssnc2Cl)cc1`: 3.28 µM; `O=C1/C(=C\c2ccc([N+](=O)[O-])cc2)CS(=O)(=O)C/C1=C/c1ccc([N+](=O)[O-])cc1`: 0.337 µM.
On to `CCCc1ccc(Oc2cn[nH]c2-c2ccc(O)c(C)c2O)cc1`, for which the AC50 was 0.408 µM.
As for `O=C1C=CC(=O)N1c1ccc(N2CCCCC2)cc1`, the AC50 was 0.312 µM.
Still for that read-out and setting: the figure for `Oc1c(CN2CCCCC2)cc(Br)c2cccnc12` is 2.95 µM; for `CC(=O)NC(c1ccc(Cl)cc1)c1ccc2cccnc2c1O` (stereo not drawn) it is 2.58 µM.
As to `Cn1c(CNc2ccc(Cl)cc2)nnc1SCc1ccccc1`, the AC50 was 3.43 µM.
For `CN(C)/C=C/C(=O)c1ccc(N2CCN(c3ncc(C(F)(F)F)cc3Cl)CC2)cc1`, the AC50 was 4.16 µM.
On to `Cc1[nH]n(-c2ccc([N+](=O)[O-])cc2)c(=O)c1C=NCCN1CCN(C(=O)c2cccc(F)c2)CC1`, for which the AC50 was 5.83 µM.
On to `O=C(/C=C/c1ccccc1)CCN1CCOCC1`, for which the AC50 is 2.47 µM.
Consider `CSc1nnc2c3cc(F)ccc3n(C)c2n1`, for which the AC50 is 5.49 µM.
Still for that read-out and setting: the figure for `O=C(O)/C=C/c1cn(-c2ccccc2)nc1-c1cc2ccccc2o1` is 16 µM.
`CCCC(=O)NC1=C(Cl)C(=O)c2ccccc2C1=O`: the AC50 was less than 0.195 µM.
Consider `COc1ccc2c(c1)CCc1c(C(=O)N3CCc4ccccc4C3)noc1-2`, for which the AC50 was 4.5 µM.
Turning to `Cc1cccc(C)c1OCC(=O)NNC(=S)NC(=O)C1CC1`, the AC50 is 1.35 µM.
On the same count and under the same terms, the figure for `Cn1c(/C=C/c2ccc([N+](=O)[O-])o2)nc2ccccc2c1=O` is 6 µM; for `COc1ccc(N=Nc2ccc(O)c3ncccc23)cc1` it is 4.61 µM.
Take `COc1ccc(C(=O)/C=C/c2ccc(-c3ccccc3)cc2)cc1CSCC(=O)O`: the AC50 was 6.01 µM.
In the case of `Cc1ccc(N2C(=O)C3C4C=CC(CNC(=S)N5CCN(c6cccc(C)c6)C(C)C5)(O4)C3C2=O)cc1` (stereo not drawn), the AC50 was 4.65 µM.
For the compound `O=C(Nc1ccccc1)c1nnsc1S(=O)c1ccc(Cl)cc1` (stereo not drawn), the AC50 was less than 0.195 µM.
Same read-out and setting: next, `COc1ccc(C(=O)O/N=C2\C(=O)N(C)c3ccccc32)cc1`: less than 0.195 µM; `CCOC(=O)c1ccc(N2C(=O)C=CC2=O)cc1`: less than 0.195 µM; `Cc1ccc(O)c(N=Nc2nccs2)c1`: 1.2 µM.
With `O=[N+]([O-])c1ccc(N=Nc2c(Cl)cc(O)cc2Cl)cc1`, the AC50 was 0.401 µM.
With `O=C1OC(c2ccccc2)(c2cc(Br)c(O)c(Br)c2)c2ccccc21` (stereo not drawn), the AC50 was 2.97 µM.
Consider `OCCCn1c(C2CCCN2c2nc(-c3ccc(F)cc3)cs2)nc2cc(Cl)c(Cl)cc21` (stereo not drawn), for which the AC50 was 5.62 µM.
As to `O=C(Nc1cccc(C(F)(F)F)c1)Oc1ccc(Cl)c2cccnc12`, the AC50 was 4.93 µM.
As for `CCOC(=O)c1ccc(N2C(=O)CC(N3CCC(O)(c4ccc(Cl)cc4)CC3)C2=O)cc1` (stereo not drawn), the AC50 was 4.04 µM.
For the compound `CCOc1cc(/C=C\[N+](=O)[O-])ccc1OCC(=O)Nc1ccccc1C`, the AC50 is 2.61 µM.
In the case of `COc1ccccc1NS(=O)(=O)c1cc(C(=O)N2CC(C)CC(C)C2)ccc1C` (stereo not drawn), the AC50 was 5.81 µM.
For `O=C(CCCNC(=O)c1ccc(Cl)cc1)OCc1cccc(Br)c1`, the AC50 was 4.54 µM.
Still for that read-out and setting: next, `O=C(O)c1cccc2c1Cc1cc([N+](=O)[O-])ccc1-2`: 0.808 µM; `C(C#CCCCCCCCCC[n+]1ccccc1)#CCCCCCCCCC[n+]1ccccc1`: 4.06 µM; `CCCCCCOC(=O)Sc1nc2ccccc2o1`: 1.57 µM.
For `COc1ccc(-c2cc(C(=O)N3CCN(c4ccccc4F)CC3)c3ccccc3n2)c(OC)c1`, the AC50 is 4.09 µM.
For `CC(=NNC(=S)Nc1cccc(Cl)c1)c1ccccn1`, the AC50 is 16.6 µM.
With `COc1cc2c(cc1OC)C(=O)N1[C@H]3c4ccccc4OC[C@@H]3[C@H](c3ccccc3)[C@]1(C)C(=O)N2`, the AC50 was 8.37 µM.
For `Oc1ccccc1N=Nc1nc(-c2ccccc2)c(-c2ccccc2)[nH]1`, the AC50 was 1.98 µM.
For `COc1cc(/C=C/C(=O)c2ccc([N+](=O)[O-])o2)ccc1O`, the AC50 was 2.02 µM.
As for `CCOC(=O)N=Nc1c2ccccc2c2nc3no[nH]c3nc12`, the AC50 is 0.769 µM.
For `COc1ccccc1NC(=O)COC(=O)c1ccc([N+](=O)[O-])s1`, the AC50 was 3.02 µM.
`Oc1c(Cl)cc(Cl)c(Cl)c1Cc1c(O)c(Cl)cc(Cl)c1Cl`: the AC50 is 0.676 µM.
As for `O=[N+]([O-])c1cc(Br)c(Nc2ccccc2)c([N+](=O)[O-])c1`, the AC50 is 8.53 µM.
Same read-out and setting: next, `CCCCCCCCCCCCCCCCn1cc[n+](C)c1`: 2.89 µM; `Cn1cncc1C#Cc1c(-c2ccsc2)sc2ccccc12`: 7.55 µM.
Turning to `Cc1ccc(NC(=O)c2nc(S(=O)(=O)Cc3ccccc3)ncc2Cl)cc1`, the AC50 is 4.12 µM.
In the case of `C=CCn1c(C)cc(C(=O)CSc2nc3ccccc3c(=O)[nH]2)c1C`, the AC50 is 3.28 µM.
As to `O=C(c1ccccc1)c1cc(Cl)ccc1N1C(=O)C=CC1=O`, the AC50 is 0.432 µM.

The assay is the same for the next values; noted with them: yeast expressing the parasite Hsp90, ATP luminescence, at 26 µM (top of the series).
On to `CCOC(=O)c1cc([N+](=O)[O-])cc([N+](=O)[O-])c1Sc1ncnc2nc[nH]c12`, for which the activity change, negative = inhibition is -6.96% (inactive).
Take `N#C/C(=C/c1ccc(N2CCCCCC2)o1)c1ccc(Cl)cc1`: the activity change, negative = inhibition was -50.5% (inactive).
Consider `O=C(/C(=C/c1cccc(Cl)c1)c1nc2ccccc2[nH]1)c1ccccc1`, for which the activity change, negative = inhibition is 49.8% (inactive).
As for `COc1cc(N=c2ssnc2Cl)c(OC)cc1Cl`, the activity change, negative = inhibition is -119% (inactive).
In the case of `C/C(CC(=O)Nc1cc(C)ccn1)=N\NC(=O)c1cccc(C)c1O`, the activity change, negative = inhibition was -51.7% (inactive).
